According to PubChem BioAssay AID2060353 (Molecular Pharmacology Branch, DTP, NCI, 2025):
pIC50: −log10 of the molar value. Several values for one entry are separate records, joined by “and”; a condition that tells them apart may be missing. Equal values may be shown once.

System: 521955-158-R2-J5-PDC spheroids with stroma, growth inhibition
Assay: Anticancer human tumor 521955-158-R2-J5-PDC patient-derived pancreatic carcinoma cell line growth inhibition [TAK]
Conditions: for viability, T/C: stronger effect = lower value
Source text: Combinatorial screen of targeted agents with TAK-243 and ipatasertib in multi-cell type tumor spheroids
A high-throughput screen of multi-cell type tumor spheroids was designed to identify active combinations of targeted small molecules and TAK-243 or ipatasertib. Complex spheroids include a stromal component modeled by human endothelial cells (HUVEC) and fibroblasts modeled by human mesenchymal stem cells (MSCs). The concentration ranges selected for each drug and investigational agent were based upon clinically achievable concentrations if the clinical Cmax of the agent was known.
Compounds. The drugs and investigational agents: TAK-243 (785004), ipatasertib (767898), everolimus (733504), selumetinib (741078), bortezomib (756655), trametinib (758246), ixazomib (758254), vemurafenib (761431), dabrafenib (764134), sapanisertib (764658), alpelisib (765974), and copanlisib (816437), were obtained from the National Cancer Institute (NCI) Developmental Therapeutics Program Chemical Repository. The FDA-approved anticancer drug set is available from the NCI Developmental Therapeutics Program. […] The stock solutions were prepared in dimethyl sulfoxide (DMSO, Sigma-Aldrich, St. Louis, MO, cat. D2650) at 800-fold the tested concentration and stored at -70 degrees C prior to their use. All drugs and investigational agents were tested over a range starting from a high concentration at or near the clinical Cmax and decreasing in half-log increments. If the clinical Cmax for an agent had not been determined, the highest concentration tested was 10 microM.
NCI60 Cell Culture. NCI60 cell lines were obtained from the NCI Developmental Therapeutics Program Tumor Repository. For each lot of cells, the Repository performed Applied Biosystems AmpFLSTR Identifiler testing with PCR amplification to confirm consistency with the published Identifier STR profile for each cell line. Cells were kept in continuous culture for no more than 20 passages. The optimal seeding densities for each of the cell lines at each time point assessed were determined prior to performing the concentration response studies. Briefly, the NCI60 human tumor lines were grown as monolayers in RPMI 1640 medium supplemented with 10% FBS and 2 mmol/L L-glutamine.
An additional 2 lines were from the NCI60 cell line panel including melanomas, MALME-3M and SK-MEL-2. Pooled donor human umbilical vein endothelial cells (HUVEC, Lonza, cat. CC-2519) and human mesenchymal stem cells (hMSC, Lonza, cat. PT-2501) were purchased from Lonza (Walkersville, MD).
PDMR cell lines were grown in complete medium (DC medium): Dulbecco's modified Eagle's medium (DMEM)/F12 supplemented with 5% fetal bovine serum (FBS), 2 mM L-glutamine, 100 U/mL penicillin and 100 µg/ml streptomycin, 0.4 µg/ml hydrocortisone, 10 ng/ml epidermal growth factor (EGF) recombinant human protein, 24 µg/mL adenine, and 0.1 mg/mL primocin. During culture from frozen stock vials, PDMR cells were cultured in the same medium containing 10 µM Y-27632 (see Table 3). The PDCs were cultured in complete DMEM/F12 media without 10 microM Y-27632 dihydrochloride for at least two passages prior to the screen. The pooled donor HUVEC and hMSC were cultured in endothelial cell growth medium 2 (PromoCell, Heidelberg, Germany, cat. C-22011) and mesenchymal stem cell growth medium 2 (PromoCell, cat. C-28009), respectively. For all experiments, HUVEC and hMSC were used at passages </=5.
For the pre-screen, cell seeding densities were determined from a titration spanning the range from 5,000 to 313 cells per well. The mct-spheroids including 60% malignant cells, 25% HUVEC and 15% MSC dispensed as a mixture into U-bottom Ultra-Low Attachment 384-well plates (Corning, NY)
High-throughput Drug Combination Screening.
Prior to their inoculation into 384-well plates, malignant cells, HUVEC, and hMSC were removed from T flasks using TrypLE express (Thermo Fisher Scientific, cat. 12605036) and harvested by centrifugation for 5 min at 233 x g. […]

[1] = curve of first compound, second compound 0.3 µM
[2] = curve of first compound, second compound 0.949 µM
[3] = curve of first compound, second compound 3 µM
[4] = curve of first compound, second compound 9.49 µM
[5] = curve of first compound, second compound 30 µM
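Further: spheroids exposed to drugs for seven days before readout.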
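Wherever viability, T/C is given: 100% = DMSO vehicle control viability.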

For `Cn1cnc2c(F)c(Nc3ccc(Br)cc3Cl)c(C(=O)NOCCO)cc21`, the viability, T/C (compound 0.00949 µM) was 77.5% and 65.7%, the viability, T/C (compound 0.03 µM) was 49.3% and 60.3% and the viability, T/C (compound 0.0949 µM) was 45.1% and 51.2%. For the same compound, the viability, T/C (compound 0.3 µM) was 42.5% and 42.8%, the viability, T/C (compound 0.949 µM) was 40.2% and 36% and the viability, T/C (compound 3 µM) was 34% and 28.5%. For the same compound, the pIC50 (curve of compound) was 7.42 and 6.93.

With `CC(C)CC(NC(=O)CNC(=O)c1cc(Cl)ccc1Cl)B1OC(=O)CC(CC(=O)O)(C(=O)O)O1` (configuration not stated) the viability, T/C (compound 0.000316 µM) was 102% and 105%, the viability, T/C (compound 0.001 µM) was 111% and 93.8% and the viability, T/C (compound 0.00316 µM) was 96.3% and 92%. The viability, T/C (compound 0.01 µM) was 93.5% and 92.7%, the viability, T/C (compound 0.0316 µM) was 80.1% and 72.8% and the viability, T/C (compound 0.1 µM) was 10% and 7.07%. The pIC50 (curve of compound) was 7.29 and 7.33.

In the case of `COC1CC2CCC(C)C(O)(O2)C(=O)C(=O)N2CCCCC2C(=O)OC(C(C)CC2CCC(OCCO)C(OC)C2)CC(=O)C(C)C=C(C)C(O)C(OC)C(=O)C(C)CC(C)C=CC=CC=C1C` (configuration not stated), the viability, T/C (compound 0.000316 µM) was 102% and 111%, the viability, T/C (compound 0.001 µM) was 105% and 97.8% and the viability, T/C (compound 0.00316 µM) was 90.8% and 91.6%. The viability, T/C (compound 0.01 µM) was 93.4% and 91.1%, the viability, T/C (compound 0.0316 µM) was 86.8% and 89.5% and the viability, T/C (compound 0.1 µM) was 73.8% and 66.2%. The pIC50 (curve of compound) was < 7.00.

With `CC(C)CC(NC(=O)C(Cc1ccccc1)NC(=O)c1cnccn1)B(O)O` (configuration not stated) the viability, T/C (compound 31.6 pM) was 94.9% and 116%, the viability, T/C (compound 0.0001 µM) was 90.7% and 91.3% and the viability, T/C (compound 0.000316 µM) was 91.3% and 92.2%. For the same compound, the viability, T/C (compound 0.001 µM) was 95.1% and 117%, the viability, T/C (compound 0.00316 µM) was 105% and 99.9% and the viability, T/C (compound 0.01 µM) was 12.7% and 7.91%. For the same compound, the pIC50 (curve of compound) was 8.22.

With `CC(C)(C)c1nc(-c2cccc(NS(=O)(=O)c3c(F)cccc3F)c2F)c(-c2ccnc(N)n2)s1` the viability, T/C (compound 0.0316 µM) was 102% and 112%, the viability, T/C (compound 0.1 µM) was 112% and 117% and the viability, T/C (compound 0.316 µM) was 140% and 170%. For the same compound, the viability, T/C (compound 1 µM) was 160% and 186%, the viability, T/C (compound 3.16 µM) was 114% and 125% and the viability, T/C (compound 10 µM) was 88.9% and 92.2%. The pIC50 (curve of compound) was < 5.00.

`COc1c(OCCCN2CCOCC2)ccc2c3n(c(=NC(=O)c4cnc(N)nc4)nc12)CCN3` was tested, and the viability, T/C (compound 0.00316 µM) was 96.6% and 79.7%, the viability, T/C (compound 0.01 µM) was 71.7% and 68.7% and the viability, T/C (compound 0.0316 µM) was 48.8% and 53.6%. The viability, T/C (compound 0.1 µM) was 29.3%, the viability, T/C (compound 0.316 µM) was 9.38% and 8.89% and the viability, T/C (compound 1 µM) was 8.06% and 7.65%. The pIC50 (curve of compound) was 7.54 and 7.44.

`CC(=O)Nc1cccc(-n2c(=O)n(C3CC3)c(=O)c3c(Nc4ccc(I)cc4F)n(C)c(=O)c(C)c32)c1` + CC(C)NCC(C(=O)N1CCN(c2ncnc3c2C(C)CC3O)CC1)c1ccc(Cl)cc1 showed a pIC50 [1] of 9.15, a pIC50 [2] of 9.55 and a pIC50 [3] of 9.57. It also gave a pIC50 [4] of 9.40, a pIC50 [5] of 9.96 and a viability, T/C (second compound 0.3 µM, first compound 94.9 pM) of 94.6%. The viability, T/C (second compound 0.3 µM, first compound 0.0003 µM) was 67.8%, the viability, T/C (second compound 0.3 µM, first compound 0.000949 µM) was 40.3% and the viability, T/C (second compound 0.3 µM, first compound 0.003 µM) was 33.8%. The viability, T/C (second compound 0.3 µM, first compound 0.00949 µM) was 29.3%, the viability, T/C (second compound 0.3 µM, first compound 0.03 µM) was 17.7% and the viability, T/C (second compound 0.949 µM, first compound 94.9 pM) was 75.4%. It also gave a viability, T/C (second compound 0.949 µM, first compound 0.0003 µM) of 46.7%, a viability, T/C (second compound 0.949 µM, first compound 0.000949 µM) of 31.9% and a viability, T/C (second compound 0.949 µM, first compound 0.003 µM) of 19.5%. It also gave a viability, T/C (second compound 0.949 µM, first compound 0.00949 µM) of 11.9%, a viability, T/C (second compound 0.949 µM, first compound 0.03 µM) of 5.36% and a viability, T/C (second compound 3 µM, first compound 94.9 pM) of 62.6%. The viability, T/C (second compound 3 µM, first compound 0.0003 µM) was 46.9%, the viability, T/C (second compound 3 µM, first compound 0.000949 µM) was 37.6% and the viability, T/C (second compound 3 µM, first compound 0.003 µM) was 22.1%. The viability, T/C (second compound 3 µM, first compound 0.00949 µM) was 12.8%, the viability, T/C (second compound 3 µM, first compound 0.03 µM) was 4.27% and the viability, T/C (second compound 9.49 µM, first compound 94.9 pM) was 91.6%. The viability, T/C (second compound 9.49 µM, first compound 0.0003 µM) was 53.6%, the viability, T/C (second compound 9.49 µM, first compound 0.000949 µM) was 33.2% and the viability, T/C (second compound 9.49 µM, first compound 0.003 µM) was 20%. The viability, T/C (second compound 9.49 µM, first compound 0.00949 µM) was 10.8%, the viability, T/C (second compound 9.49 µM, first compound 0.03 µM) was 4.02% and the viability, T/C (second compound 30 µM, first compound 94.9 pM) was 51.5%. The viability, T/C (second compound 30 µM, first compound 0.0003 µM) was 38.6%, the viability, T/C (second compound 30 µM, first compound 0.000949 µM) was 18.3% and the viability, T/C (second compound 30 µM, first compound 0.003 µM) was 8.52%. It also gave a viability, T/C (second compound 30 µM, first compound 0.00949 µM) of 3.18% and a viability, T/C (second compound 30 µM, first compound 0.03 µM) of 0.96%.

With `CC(C)(C)c1nc(-c2cccc(NS(=O)(=O)c3c(F)cccc3F)c2F)c(-c2ccnc(N)n2)s1` + CC(C)NCC(C(=O)N1CCN(c2ncnc3c2C(C)CC3O)CC1)c1ccc(Cl)cc1 the pIC50 [1] was < 5.00, the pIC50 [2] was 5.01 and the pIC50 [3] was 5.20. The pIC50 [4] was 5.30, the pIC50 [5] was 5.97 and the viability, T/C (second compound 0.3 µM, first compound 0.0316 µM) was 115%. It also gave a viability, T/C (second compound 0.3 µM, first compound 0.1 µM) of 135%, a viability, T/C (second compound 0.3 µM, first compound 0.316 µM) of 135% and a viability, T/C (second compound 0.3 µM, first compound 1 µM) of 134%. It also gave a viability, T/C (second compound 0.3 µM, first compound 3.16 µM) of 96.8%, a viability, T/C (second compound 0.3 µM, first compound 10 µM) of 60.3% and a viability, T/C (second compound 0.949 µM, first compound 0.0316 µM) of 116%. The viability, T/C (second compound 0.949 µM, first compound 0.1 µM) was 117%, the viability, T/C (second compound 0.949 µM, first compound 0.316 µM) was 109% and the viability, T/C (second compound 0.949 µM, first compound 1 µM) was 100%. The viability, T/C (second compound 0.949 µM, first compound 3.16 µM) was 79.5%, the viability, T/C (second compound 0.949 µM, first compound 10 µM) was 49.1% and the viability, T/C (second compound 3 µM, first compound 0.0316 µM) was 89.8%. For the same compound, the viability, T/C (second compound 3 µM, first compound 0.1 µM) was 93.8%, the viability, T/C (second compound 3 µM, first compound 0.316 µM) was 72.2% and the viability, T/C (second compound 3 µM, first compound 1 µM) was 92.1%. The viability, T/C (second compound 3 µM, first compound 3.16 µM) was 75.4%, the viability, T/C (second compound 3 µM, first compound 10 µM) was 32.8% and the viability, T/C (second compound 9.49 µM, first compound 0.0316 µM) was 92.3%. For the same compound, the viability, T/C (second compound 9.49 µM, first compound 0.1 µM) was 83.9%, the viability, T/C (second compound 9.49 µM, first compound 0.316 µM) was 65.1% and the viability, T/C (second compound 9.49 µM, first compound 1 µM) was 66.2%. The viability, T/C (second compound 9.49 µM, first compound 3.16 µM) was 71.4%, the viability, T/C (second compound 9.49 µM, first compound 10 µM) was 33.4% and the viability, T/C (second compound 30 µM, first compound 0.0316 µM) was 59.7%. The viability, T/C (second compound 30 µM, first compound 0.1 µM) was 56.7%, the viability, T/C (second compound 30 µM, first compound 0.316 µM) was 50.9% and the viability, T/C (second compound 30 µM, first compound 1 µM) was 51.2%. For the same compound, the viability, T/C (second compound 30 µM, first compound 3.16 µM) was 44.8% and the viability, T/C (second compound 30 µM, first compound 10 µM) was 28.7%.
